Experimental data: patent US8501725B2, “Synergistic combination of flumetsulam or diclosulam with zinc pyrithione” (Dow Global Technologies LLC, priority 2010, dated 2013)
Read-outs that look alike come from different tables or passages of the source.

Columns and labels:
Assay type in all cases: cell-based
[1] = test system: Gloeocapsa sp. and Oscillatoria sp. (Gs + Os); test: Algal efficacy testing, modified ASTM 5589, paint film (both studies); conditions: four weeks; for MIC: 672 h, read-out: Total conc (minimum inhibitory concentration chosen for SI); for MIC / Total conc (minimum inhibitory concentration chosen for SI): in acrylic latex paint, dry film; for % inhibition: at the Total conc given
Method: (§1) Sample preparation: A single or blend of biocides was post added into white acrylic latex paint free of biocides to give a maximum total active ingredient/s concentration tested. This paint was then diluted with a biocide free acrylic latex paint to give targeted concentrations for the testing. Depending on the type of biocide blends tested, the total biocides concentrations varies from 200 to 5000 ppm. After biocides addition or dilution, each sample was hand mixed for at least a minute until uniformity is achieved. Each of the paint samples as well as a control sample (containing no biocide) were used to prepare films on black plastic-vinyl chloride/acetate copolymer panels (LENETA, Mahwah, N.J.) using a 3 mil (0.0762 mm) bird bar applicator. The panels were thoroughly dried for at least 2 days avoiding direct exposure to sunlight. Square discs ([…]) were cut out from each panel and were used as the substrate for fungal and algal efficacy tests. This sample size allowed for an agar border when the sample disc was placed into the well of the test plate. Each sample was tested in duplicate
(§2) Test conditions: The appropriate media (BOLD'S 3N for Chlorophytes, BG-11 for Cyanobacteria, and PDA for fungi) were used to support microbial growth. The test plates were maintained at room temp (25° C.-26° C.), in a cycled light-dark environment, for four weeks for algae. Plates for fungal challenge tests were maintained at 30 C for four weeks. At the end of the incubation period the samples were scored for percent area covered by visible microbial growth.
(§3) ASTM 5589 is a standard accelerated test method for determining resistance of various coatings (including paints) to algal defacement. To accommodate for high-throughput screening, this method was scaled down from petri plates to 6-well plates. A single coupon was placed with a pair of sterile forceps at the center of the agar plug (on top) with the painted surface facing upwards. Algal inoculums were prepared by mixing equal concentrations (1×10^6 cfu/ml) and equal volumes (depending on number of samples to be inoculated) of like growing organisms.
(§4) In Flumetsulam+various IT synergy study, three pool of mixed algae were prepared as the test inoculum, Gloeocapsa sp. and Oscillatoria sp. a mix of cyanobacteria grown on BG-11 media; Chlorella sp., Chlorella kessleri, and Nostoc commune are unicellular chlorphytes that were mixed and grown on Bold media; Trentepohlia aurea, Tretepohlia odorata, and Calotrix parientina are filamentous algae that were mixed and grown on Bold media.
(§5) In Diclosulam+various IT synergy study, only two pools of mixed algae were prepared; Gloeocapsa sp. and Oscillatoria sp. grown on BG-11 media and Chlorella sp., Chlorella kessleri, Nostoc commune, Trentepohlia aurea, Tretepohlia odorata, and Calotrix parientina grown on Bold media
(§6) Each well that contains a tested coupon was inoculated with 400 μl of organism mixture (1×10^6 cfu/ml) making sure that the whole surface (paint film as well as the agar surrounding it) was evenly covered. The plates were incubated at room temp (25° C.-26° C.) with cyclic exposure to light (OTT-Lite model # OTL4012P, 40 Watt, 26KLumen) and dark phases, for a period of four weeks. The total area covered was evaluated at the end of each week according to percent area covered in 5% increments.
(§7) The SI is calculated based on F. C.
(§8) NE=no end point at the concentration tested that will meet the percent inhibition criteria set in each SI calculation

[2] = Algal efficacy testing, modified ASTM 5589, paint film (Diclosulam + ZPT study); conditions: Nostoc commune, 672 h; Cp + To + Ta + Cs + Ck + Nc; in acrylic latex paint, dry film; four weeks; read-out: Total conc (minimum inhibitory concentration chosen for SI)
Method: as §1, §2, §3, §5
(§9) Each well that contains a tested coupon was inoculated with 400 μl of organism mixture (1×10^6 cfu/ml) making sure that the whole surface (paint film as well as the agar surrounding it) was evenly covered. […] The total area covered was evaluated at the end of each week according to percent area covered in 5% increments.
(§10) The SI is calculated based on F. C. […]

[3] = test system: Chlorella sp., Chlorella kessleri, Nostoc commune, Trentepohlia aurea, Tretepohlia odorata, and Calotrix parientina (Cp + To + Ta + Cs + Ck + Nc); test: as above; conditions: four weeks; for % inhibition: at the Total conc given
Method: as §1, §2, §3, §5, §9, §10

[4] = test system: Aa + Tv + An + Pf + Ap + Ch; test: Fungal efficacy testing, modified ASTM 5590, paint film (Diclosulam + ZPT study, single pool of all fungi); conditions: four weeks; for % inhibition: at the Total conc given; for Total conc: in acrylic latex paint, dry film, 30 C
Method: as §1, §2
ASTM 5590 is a standard accelerated test method for determining resistance of various coatings (including paints) to fungal defacement. To accommodate for high-throughput screening, this method was scaled down from petri plates to 6-well plates. To set up the test, an agar plug was placed at the bottom of each well of the sterile 6-well plate. A single coupon was placed with a pair of sterile forceps at the center of the agar plug (on top) with the painted surface facing upwards. Fungal inoculums were prepared by mixing equal concentrations (1×10^6 cfu/ml) and equal volumes (depending on number of samples to be tested) of like growing organisms. For Flumetsulam+various IT synergy study, three pools of mixed fungi were prepared as the test inoculum. Cladosporium herbarum was mixed with Aureobasidium pullulans; Aspergillus niger was mixed with Penicillium funiculosum and Alternaria alternata was mixed with Trichoderma viride. For Diclosulam+various IT synergy study, all above fungi were mixed as a single pool. […] The total percent area covered was evaluated and recorded at the end of each week after the 2nd week and recorded in increments of 5%.
as §10

[5] = test system: Aspergillus niger mixed with Penicillium funiculosum (AnPf); test: Fungal efficacy testing, modified ASTM 5590, paint film (Flumetsulam + ZPT study); conditions: four weeks; for % inhibition: at the Total conc given
Method: as §1, §2
(§11) ASTM 5590 is a standard accelerated test method for determining resistance of various coatings (including paints) to fungal defacement. To accommodate for high-throughput screening, this method was scaled down from petri plates to 6-well plates. To set up the test, an agar plug was placed at the bottom of each well of the sterile 6-well plate. A single coupon was placed with a pair of sterile forceps at the center of the agar plug (on top) with the painted surface facing upwards. Fungal inoculums were prepared by mixing equal concentrations (1×10^6 cfu/ml) and equal volumes (depending on number of samples to be tested) of like growing organisms. For Flumetsulam+various IT synergy study, three pools of mixed fungi were prepared as the test inoculum. Cladosporium herbarum was mixed with Aureobasidium pullulans; Aspergillus niger was mixed with Penicillium funiculosum and Alternaria alternata was mixed with Trichoderma viride. For Diclosulam+various IT synergy study, all above fungi were mixed as a single pool. Each well was inoculated with 400 μl of organism mixture (1×10^6 cfu/ml) making sure that the whole surface (paint film as well as the agar surrounding it) was evenly covered. The plates were incubated at 30° C. in presence of moisture, for a period of four weeks. The total percent area covered was evaluated and recorded at the end of each week after the 2nd week and recorded in increments of 5%.
as §7, §8

[6] = test system: Alternaria alternata mixed with Trichoderma viride (AaTv); test: as above; conditions: four weeks; for % inhibition: at the Total conc given
Method: as §1, §2, §11, §7, §8

[7] = test system: Cladosporium herbarum mixed with Aureobasidium pullulans (ApCh); test: as above; conditions: four weeks; for % inhibition: at the Total conc given
Method: as §1, §2, §11, §7, §8

[8] = test system: Trentepohlia aurea, Tretepohlia odorata, and Calotrix parientina (Cp + To + Ta); test: Algal efficacy testing, modified ASTM 5589, paint film (Flumetsulam + ZPT study); conditions: four weeks; for % inhibition: at the Total conc given; for Total conc (minimum inhibitory concentration chosen for SI): in acrylic latex paint, dry film, 25-26 C, light-dark
Method: as §1, §2, §3, §4, §6, §7, §8

[9] = test system: Chlorella sp., Chlorella kessleri, and Nostoc commune (Cs + Ck + Nc); test: as above; conditions: four weeks; for % inhibition: at the Total conc given
Method: as §1, §2, §3, §4, §6, §7, §8

[10] = in acrylic latex paint, dry film, 30 C

| Compound | % inhibition ([1]; Diclosulam and ZPT study) | % inhibition [3] | % inhibition [4] | Total conc [4] | % inhibition [5] | % inhibition [6] | % inhibition [7] | % inhibition ([1]; Flumetsulam and ZPT study) | % inhibition [8] | Total conc (minimum inhibitory concentration chosen for SI) [8] | % inhibition [9] | further results |
| --- | --- | --- | --- | --- | --- | --- | --- | --- | --- | --- | --- | --- |
| CCOc1nc(F)cc2nc(S(=O)(=O)Nc3c(Cl)cccc3Cl)nn12 [Diclosulam, N-(2,6-dichlorophenyl)-5-ethoxy-7-fluoro[1,2,4]triazolo[1,5-c]pyrimidine-2-sulfonamide] | 100% | 80% | 0% | 3500 ppm | – | – | – | – | – | – | – | MIC ([1]; Diclosulam and ZPT study): 438 µg/mL; MIC [2]: 3500 µg/mL |
| Cc1ccn2nc(S(=O)(=O)Nc3c(F)cccc3F)nc2n1 [Flumetsulam, N-(2,6-difluorophenyl)-5-methyl[1,2,4]triazolo[1,5-a]pyrimidine-2-sulfonamide] | – | – | – | – | 0% | 0% | 25% | 0% | 100% | 2625 ppm | 90% | MIC ([5]; Aspergillus niger, 672 h, in acrylic latex paint, dry film, 30 C, read-out: Total conc (minimum inhibitory concentration chosen for SI)): 3500 µg/mL; MIC ([6]; Alternaria alternata, 672 h, in acrylic latex paint, dry film, 30 C, NE = no end point at the concentration tested, read-out: Total conc (minimum inhibitory concentration chosen for SI)): 3500 µg/mL; MIC ([7]; Cladosporium herbarum, 672 h, in acrylic latex paint, dry film, 30 C, read-out: Total conc (minimum inhibitory concentration chosen for SI)): 3500 µg/mL; MIC ([1]; Flumetsulam and ZPT study): 2620 µg/mL; MIC ([9]; Nostoc commune, 672 h, in acrylic latex paint, dry film, 25-26 C, light-dark, read-out: Total conc (minimum inhibitory concentration chosen for SI)): 3500 µg/mL |
| zinc pyrithione [ZPT] | 100% | 100% | 0% | 5000 ppm | 100% | 50% | 100% | 100% | 100% | 625 ppm | 100% | Total conc (minimum inhibitory concentration chosen for SI) [5, 10]: 625 ppm; Total conc (minimum inhibitory concentration chosen for SI) ([6]; in acrylic latex paint, dry film, 30 C, NE = no end point at the concentration tested): 5000 ppm; Total conc (minimum inhibitory concentration chosen for SI) [7, 10]: 625 ppm; Total conc (minimum inhibitory concentration chosen for SI) ([1]; Diclosulam and ZPT study): 625 ppm; Total conc (minimum inhibitory concentration chosen for SI) ([1]; Flumetsulam and ZPT study): 625 ppm; Total conc (minimum inhibitory concentration chosen for SI) ([3]; in acrylic latex paint, dry film): 625 ppm; Total conc (minimum inhibitory concentration chosen for SI) ([9]; in acrylic latex paint, dry film, 25-26 C, light-dark): 625 ppm |
